Reference: article PMC8691750, “Euphorbia Factor L2 ameliorates the Progression of K/BxN Serum-Induced Arthritis by Blocking TLR7 Mediated IRAK4/IKKβ/IRF5 and NF-kB Signaling Pathways” (Frontiers in Pharmacology, 2021)

Assays:
[1] = system: SMMC-7721 and Hep G2 cells; design: method as in Fan et al., 2019; conditions: via STAT3 phosphorylation; ref Fan et al., 2019; cited from earlier work
[2] = system: TLR7 (R837) / TLR3 (poly:IC) induced cytokine production in RAW264.7 cells; experiment: ELISA of IL-1β and IL-6 in supernatant of R837 and/or poly:IC stimulated RAW264.7 cells; type: cell-based, mouse
Procedure: RAW264.7 cells (5×10^5/ml), BMDMs (5×10^5/ml) and PBMCs (2×10^6/ml) were plated in 96-well plates and incubated overnight. […] For the anti-inflammatory molecular mechanism study, RAW264.7 cells (5×10^5/ml) were plated in 96-well plates and stimulated with R837 (20 μg/ml) with or without the addition of NF-κB inhibitor (JSH-23, […]) for 24 h. After 24 h, the culture supernatant was collected for cytokines measurements.
IL-4, IL-17A and TNF-α in sera from different group mice were measured using CBA Multiplex kit (BD, United States). The concentrations of IL-1β and IL-6 in serum or supernatant were detected by ELISA Kit (MULTI SCIENCES, China) according to the manufacturers’ instructions.

RAW264.7 cells = experiment: Cell viability, CCK8 assay, RAW264.7; type: cell-based, mouse; conditions: CCK8, 0.1-100 μM, 20 h
Procedure: RAW264.7 cells, a mouse macrophage cell line, were cultured in DMEM medium containing 10% fetal bovine serum (FBS), 1% penicillin-streptomycin and maintained at 37 °C in 5% CO2 humidified air. Bone marrow-derived macrophages (BMDMs) generation was performed as following description. In brief, bone marrow cells were harvested from tibias and femurs of C57BL/6 mice and differentiated for 7 days in DMEM medium supplemented with 10% FBS, 1% penicillin-streptomycin and 50 ng/ml M-CSF. For human peripheral blood mononuclear cells (PBMCs) preparation, 5 ml peripheral venous blood was obtained from healthy donors in West China Hospital. PBMCs were isolated with Human Lymphocyte Separation Medium (LTS1077, Tian Jing, China) according to the manufacturer’s instructions. The experimental protocols were performed according to the approved guidelines established by the Institutional Human Research Subject Protection Committee of the Ethics Committee of West China Hospital, Sichuan University, China.
The effects of EFL2 on RAW264.7 cells, BMDMs and PBMCs viability were evaluated by Cell Counting Kit-8 (CCK8) assay (Dojindo, Japan). […] The optical absorbance at 450 nm was read with a Biotek Eon™ microplate reader (Biotek, Vermont, United States).

[3] = system: synovial hyperplasia and articular inflammatory cells infiltration in knee joints; experiment: Histological assessment (H&E) of knee joints of STA mice; type: in vivo, C57BL/6 mice
Procedure: (§1) K/BxN serum was collected from K/BxN mice at 8 weeks of age, pooled, aliquoted and stored at -20 °C. K/BxN serum-transfer arthritis (STA) model was induced by intraperitoneal (i.p.) application of 150 μL of serum at day 0. Clinical score for arthritis severity was assessed using a 0–4 point scale for each paw at various time points (0–16 total score) as described previously ([Luo et al., 2011]). 8-week old male C57BL/6 mice were purchased from Dashuo Animal Center (China, Chengdu), maintained at 25°C, and exposed to 12-h light and dark cycles. Mice were fed with standard laboratory chow and water with 1 week of acclimatization. Naive mice were used as the control group. Except the control mice, all mice were i. p. injected with 150 μL of serum, then randomly divided into the following groups and treated with different compounds daily for the consecutive 8 days: 1) STA group; 2) Solvent control group, mice were gavaged with the solvent; 3) Dexamethasone (DEX) group, mice were gavaged with 30 mg/kg DEX; 4) EFL2 group 1, mice were gavaged with 40 mg/kg EFL2; 5) EFL2 group 2, mice were intraperitoneally injected with 15 mg/kg EFL2; 6) EFL2 group 3, […] were intraperitoneally injected with 40 mg/kg EFL2. […] All animal experiments were conducted in accordance with ethical regulation for animal care and use in China.
The left knee joints were removed on day 13 post STA and fixed in 4% formaldehyde overnight at 4°C. The tissues were decalcified in EDTA and sectioned after embedding in paraffin. 5 μm sections were deparaffinized with xylene, re-hydrated with 100, 95 and 80% ethanol and then stained with hematoxylin and eosin (H&E). Histopathological changes in the knee joints were measured using a semiquantitative scoring system (0–4 scale) to assess synovial hyperplasia and articular inflammatory cells infiltration as previously described ([Yamanishi et al., 2002]).

[4] = system: chemokine, cytokine and TLR pathway mRNA expression in the ankles; experiment: Quantitative RT-PCR of ankles of STA mice; type: in vivo, C57BL/6 mice
Procedure: as §1
Frozen right ankles were pulverized with liquid nitrogen and total RNA was extracted using Trizol reagent (Invitrogen). RNA was reverse transcribed into cDNA using an oligo d(T) primer. The obtained cDNA was applied for quantitative RT-PCR using SYBR Green I-dTTP (Eurogentec). Samples were analyzed in triplicate, and β-actin was used as endogenous controls. Data was analyzed using the 2^−ΔΔCt method and is expressed as “Fold change” (expression relative to housekeeping gene and normalized to reference sample).

[5] = STA mice day 5, EFL2 40 mg/kg i.p.

For `C=C1C(OC(=O)c2ccccc2)CC2C(C=C(C)C(=O)C3(OC(C)=O)CC(C)C(OC(=O)c4ccccc4)C3C1OC(C)=O)C2(C)C` (stereo not drawn) [EFL2, Euphorbia factor L2], the “SMMC-7721 and Hep G2 cells proliferation and migration” value [1] is listed as “suppressing”, the “inhibitory ability on IL-1β and IL-6 production compared to JSH-23” value ([2]; R837-stimulated RAW264.7, EFL2 10 μM) is listed as “stronger inhibitory ability” and the IL-6 production ([2]; R837-stimulated RAW264.7, EFL2 0.1-10 μM) is listed as “dose-dependently reduced”. The IL-1β secretion ([2]; R837-stimulated RAW264.7, EFL2 at 0.1 μM) was “effectively inhibit”, the “levels of IL-1β and IL-6 in the supernatant” value ([2]; RAW264.7 co-stimulated by poly (I:C) and R837, various concentrations of EFL2) was “to different expent decreased” and the “concentration at which significant cytotoxicity is displayed” value (RAW264.7 cells) was ≥ 25 µM. For the same molecule, the “inflammatory cells infiltration and synovium hyperplasia in joints” value ([3]; EFL2 15 mg/kg i.p.) was “only partially reduced”, the “inflammatory status and inflamed synovium in joints” value ([3]; EFL2 40 mg/kg i.p.) was “significantly inhibited” and the “CXCL1 mRNA expression in the ankles” value [4, 5] was “remarkably down-regulated”. For the same molecule, the “CXCL5 mRNA expression in the ankles” value [4, 5] was “remarkably down-regulated”, the “CCL3 mRNA expression in the ankles” value ([4]; STA mice, EFL2 15 mg/kg i.p.) was “only significantly decreased” and the “CCL3 gene expression in the ankles” value ([4]; STA mice, EFL2 40 mg/kg i.p.) was “significantly reduced”. The “mRNA expression of up-regulated TLR pathway genes (TLR7, TLR2, TLR9, Myd88, IRAK1/4, Nfkbia/ib, IRF5, Rel, Map3K7, Mapk8) in ankles” value ([4]; STA mice, EFL2 40 mg/kg i.p., RT-PCR) was “robust inhibitory effect”, the “IL-1β mRNA expression in the ankles” value ([4]; STA mice, EFL2 i.p. treatment) was “robustly inhibited” and the “IL-6 mRNA expression in the ankles” value ([4]; STA mice, EFL2 i.p. treatment) was “robustly inhibited”.
